Values after ≈ are worked out from the molar mass of the structure shown.
Columns and labels:
E. faecium OC3312 = test: MIC by microdilution broth method (NCCLS), E. faecium OC3312; type: cell-based; details: Enterococcus faecium, OC3312, microdilution broth, cation adjusted Mueller-Hinton broth, 35° C., 16-20 hours; read-out: MIC (μg/mL) E. faecium OC3312
Experimental: (§1) Minimal inhibitory concentration (MIC) has been an indicator of in vitro antibacterial activity widely used in the art. The in vitro antimicrobial activity of the compounds was determined by the microdilution broth method following the test method from the National Committee for Laboratory Standards (NCCLS). This method is described in the NCCLS Document M7-A4, Vol. 17, No.2, “Methods for Dilution Antimicrobial Susceptibility Test for Bacteria that Grow Aerobically-Fourth Edition”, which is incorporated herein by reference.
(§2) In this method two-fold serial dilutions of drug in cation adjusted Mueller-Hinton broth are added to wells in microdilution trays. The test organisms are prepared by adjusting the turbidity of actively growing broth cultures so that the final concentration of test organism after it is added to the wells is approximately 5×10^4 CFU/well.
(§3) Following inoculation of the microdilution trays, the trays are incubated at 35° C. for 16-20 hours and then read. […] The amount of growth in the wells containing the test compound is compared with the amount of growth in the growth-control wells (no test compound) used in each tray. As set forth in Table 1, compounds of the present invention were tested against a variety of Gram positive and Gram negative pathogenic bacteria resulting in a range of activities, from 1 to ≧128 μg/mL depending on the organism tested.

MRSA OC 2878 = test: MIC by microdilution broth method (NCCLS), MRSA OC 2878; type: cell-based, Staphylococcus aureus; details: Staphylococcus aureus, MRSA, cation adjusted Mueller-Hinton broth, 35° C., 16-20 hours, read-out: MIC (μg/mL) MRSA OC 2878
Experimental: as §1, §2, §3

S. aureus = test: MIC by microdilution broth method (NCCLS), S. aureus Broth; type: cell-based; details: Staphylococcus aureus, cation adjusted Mueller-Hinton broth, 35° C., 16-20 hours, read-out: MIC (μg/mL) S. aureus Broth
Experimental: as §1, §2, §3

Row | melting point | MIC (E. faecium OC3312) | MIC (MRSA OC 2878) | MIC (S. aureus) | SMILES
1 | 42 to 45 °C | 16 µg/mL (≈ 32.1 µM) | 8 µg/mL (≈ 16 µM) | 16 µg/mL (≈ 32.1 µM) | CC(=O)NC[C@H]1CN(c2ccc(OC3CCN(C(=O)CCCc4cccnc4)CC3)c(F)c2)C(=O)O1 [Compound 26, (S)-N-[[3-[3-Fluoro-4-{N-(4-pyridin-3-yl-butyryl)piperidinyl-4-oxy}phenyl]-2-oxo-5-oxazolidinyl]methyl]acetamide]
2 | 150 to 152 °C | 32 µg/mL (≈ 61.1 µM) | 16 µg/mL (≈ 30.6 µM) | 16 µg/mL (≈ 30.6 µM) | CC(=O)NC[C@H]1CN(c2ccc(OC3CCN(C(=O)c4cccc(C(F)(F)F)c4)CC3)c(F)c2)C(=O)O1 [Compound 10, (S)-N-[[3-[3-Fluoro-4-{N-(3-trifluoromethylbenzoyl)piperidinyl-4-oxy}phenyl]-2-oxo-5-oxazolidinyl]methyl]acetamide]
3 | 75 to 78 °C | 16 µg/mL (≈ 33.3 µM) | 8 µg/mL (≈ 16.6 µM) | 16 µg/mL (≈ 33.3 µM) | CC(=O)NC[C@H]1CN(c2ccc(OC3CCN(C(=O)c4ccc(C#N)cc4)CC3)c(F)c2)C(=O)O1 [Compound 11, (S)-N-[[3-[3-Fluoro-4-{N-(4-cyanobenzoyl)piperidinyl-4-oxy}phenyl]-2-oxo-5-oxazolidinyl]methyl]acetamide]
4 | 49 to 53 °C | 32 µg/mL (≈ 70.1 µM) | 32 µg/mL (≈ 70.1 µM) | 16 µg/mL (≈ 35.1 µM) | CC(=O)NC[C@H]1CN(c2ccc(OC3CCN(C(=O)c4cccnc4)CC3)c(F)c2)C(=O)O1 [Compound 19, (S)-N-[[3-[3-Fluoro-4-{N-(3-pyridoyl)piperidinyl-4-oxy}phenyl]-2-oxo-5-oxazolidinyl]methyl]acetamide]
5 | 134 to 136 °C | 8 µg/mL (≈ 18 µM) | 8 µg/mL (≈ 18 µM) | 16 µg/mL (≈ 35.9 µM) | CC(=O)NC[C@H]1CN(c2ccc(OC3CCN(C(=O)c4ccco4)CC3)c(F)c2)C(=O)O1 [Compound 51, (S)-N-[[3-[3-Fluoro-4-{N-(2-furoyl)piperdinyl-4-oxy}phenyl]-2-oxo-5-oxazolidinyl]methyl]acetamide]
6 | 45 to 47 °C | 16 µg/mL (≈ 33 µM) | 16 µg/mL (≈ 33 µM) | 16 µg/mL (≈ 33 µM) | CC(=O)NC[C@H]1CN(c2ccc(OC3CCN(C(=O)CCc4cccnc4)CC3)c(F)c2)C(=O)O1 [Compound 27, (S)-N-[[3-[3-Fluoro-4-{N-(3-pyridin-3-yl-propionyl)piperidinyl-4-oxy}phenyl]-2-oxo-5-oxazolidinyl]methyl]acetamide]
7 | 121 to 123 °C | 8 µg/mL (≈ 18.6 µM) | 4 µg/mL (≈ 9.31 µM) | 4 µg/mL (≈ 9.31 µM) | CC(=O)NC[C@H]1CN(c2ccc(OC3CCN(c4ncccn4)CC3)c(F)c2)C(=O)O1 [Compound 9, (S)-N-[[3-[3-Fluoro-4-{N-(2-pyrimidinyl)piperidinyl-4-oxy}phenyl]-2-oxo-5-oxazolidinyl]methyl]acetamide]
8 | 129 to 131 °C | 32 µg/mL (≈ 75.7 µM) | 16 µg/mL (≈ 37.9 µM) | 8 µg/mL (≈ 18.9 µM) | CC(=O)NC[C@H]1CN(c2ccc(OC3CCN(C(=O)N(C)C)CC3)c(F)c2)C(=O)O1 [Compound 24, (S)-N-[[3-[3-Fluoro-4-{N-(dimethylcarbamoyl)piperidinyl-4-oxy}phenyl]-2-oxo-5-oxazolidinyl]methyl]acetamide]
9 | 82 to 85 °C | 16 µg/mL (≈ 33.3 µM) | 8 µg/mL (≈ 16.6 µM) | 8 µg/mL (≈ 16.6 µM) | CC(=O)NC[C@H]1CN(c2ccc(OC3CCN(C(=O)c4cccc(C#N)c4)CC3)c(F)c2)C(=O)O1 [Compound 12, (S)-N-[[3-[3-Fluoro-4-{N-(3-cyanobenzoyl)piperidinyl-4-oxy}phenyl]-2-oxo-5-oxazolidinyl]methyl]acetamide]

Continued, compound first:

Row | SMILES | melting point | MIC (E. faecium OC3312) | MIC (MRSA OC 2878) | MIC (S. aureus)
10 | CC(=O)NC[C@H]1CN(c2ccc(OC3CCCN(C(=O)OC(C)(C)C)C3)c(F)c2)C(=O)O1 (stereo partly drawn) [Compound 34, (S)-N-[[3-[3-Fluoro-4-{N-(t-butoxycarbonyl)piperidinyl-3-oxy}phenyl]-2-oxo-5-oxazolidinyl]methyl]acetamide] | 60 to 63 °C | > 128 µg/mL | 64 µg/mL (≈ 142 µM) | 128 µg/mL (≈ 284 µM)
11 | CC(=O)NC[C@H]1CN(c2ccc(OC3CCN(C(=O)COCc4ccccc4)C3)c(F)c2)C(=O)O1 (stereo partly drawn) [Compound 39, (S)-N-[[3-[3-Fluoro-4-{N-(benzyloxyacetyl)pyrrolidinyl-3-oxy}phenyl]-2-oxo-5-oxazolidinyl]methyl]acetamide] | 53 to 55 °C | 16 µg/mL (≈ 33 µM) | 16 µg/mL (≈ 33 µM) | 16 µg/mL (≈ 33 µM)
12 | CC(=O)NC[C@H]1CN(c2ccc(OC3CN(C(=O)COCc4ccccc4)C3)c(F)c2)C(=O)O1 [Compound 58, (S)-N-[[3-[3-Fluoro-4-{N-(benzyloxyacetyl)azetidinyl-3-oxy}phenyl]-2-oxo-5-oxazolidinyl]methyl]acetamide] | 119 to 121 °C | 4 µg/mL (≈ 8.48 µM) | 4 µg/mL (≈ 8.48 µM) | 8 µg/mL (≈ 17 µM)
13 | CC(=O)NC[C@H]1CN(c2ccc(OC3CCN(S(C)(=O)=O)CC3)nc2)C(=O)O1 [Compound 44, (5S)-3-[6-{N-(Methanesulfonyl)piperidinyl-4-oxy}-pyridin-3-yl]-5-methylacetamide-oxazolidin-2-one] | 175 to 176 °C | 128 µg/mL (≈ 310 µM) | 64 µg/mL (≈ 155 µM) | 32 µg/mL (≈ 77.6 µM)
14 | CC(=O)NC[C@H]1CN(c2ccc(OC3CCN(C(=O)N4CCOCC4)CC3)c(F)c2)C(=O)O1 [Compound 25, (S)-N-[[3-[3-Fluoro-4-{N-(4-morpholinocarbamoyl)piperidinyl-4-oxy}phenyl]-2-oxo-5-oxazolidinyl]methyl]acetamide] | 167 to 170 °C | 64 µg/mL (≈ 138 µM) | 32 µg/mL (≈ 68.9 µM) | 32 µg/mL (≈ 68.9 µM)
15 | CC(=O)NC[C@H]1CN(c2ccc(OC3CN(C(=O)COC(C)=O)C3)c(F)c2)C(=O)O1 [Compound 59, (S)-N-[[3-[3-Fluoro-4-{N-(acetoxyacetyl)azetidinyl-3-oxy}phenyl]-2-oxo-5-oxazolidinyl]methyl]acetamide] | 172 to 175 °C | 16 µg/mL (≈ 37.8 µM) | 8 µg/mL (≈ 18.9 µM) | 4 µg/mL (≈ 9.45 µM)
16 | CC(=O)NC[C@H]1CN(c2ccc(OC3CCN(S(=O)(=O)N(C)C)CC3)c(F)c2)C(=O)O1 [Compound 23, (S)-N-[[3-[3-Fluoro-4-{N-(dimethylsulfamoyl)piperidinyl-4-oxy}phenyl]-2-oxo-5-oxazolidinyl]methyl]acetamide] | 132 to 134 °C | 16 µg/mL (≈ 34.9 µM) | 4 µg/mL (≈ 8.72 µM) | 16 µg/mL (≈ 34.9 µM)
17 | CC(=O)NC[C@H]1CN(c2ccc(OC3CCN(C(=O)COC(C)=O)CC3)c(F)c2)C(=O)O1 [Compound 53, (S)-N-[[3-[3-Fluoro-4-{N-(acetoxyacetyl)piperidinyl-4-oxy}phenyl]-2-oxo-5-oxazolidinyl]methyl]acetamide] | 146 to 147.5 °C | 16 µg/mL (≈ 35.4 µM) | 8 µg/mL (≈ 17.7 µM) | 8 µg/mL (≈ 17.7 µM)
18 | CC(=O)NC[C@H]1CN(c2ccc(OC3CCN(C(=O)CNS(C)(=O)=O)CC3)c(F)c2)C(=O)O1 [Compound 17, (S)-N-[[3-[3-Fluoro-4-{N-(α-methylsulfonylaminoacetyl)piperidinyl-4-oxy}phenyl]-2-oxo-5-oxazolidinyl]methyl]acetamide] | 78 to 82 °C | 16 µg/mL (≈ 32.9 µM) | 16 µg/mL (≈ 32.9 µM) | 8 µg/mL (≈ 16.4 µM)
19 | CC(=O)NC[C@H]1CN(c2ccc(OC3CCN(C(=O)CO)C3)c(F)c2)C(=O)O1 (stereo partly drawn) [Compound 40, (S)-N-[[3-[3-Fluoro-4-{N-(α-hydroxyacetyl)pyrrolidinyl-3-oxy}phenyl]-2-oxo-5-oxazolidinyl]methyl]acetamide] | 97 to 99 °C | 16 µg/mL (≈ 40.5 µM) | 8 µg/mL (≈ 20.2 µM) | 4 µg/mL (≈ 10.1 µM)
20 | CC(=O)NC[C@H]1CN(c2ccc(OC3CCNCC3)c(F)c2)C(=O)O1 [Compound 2, (S)-N-[[3-[3-Fluoro-4-{piperidinyl-4-oxy}phenyl]-2-oxo-5-oxazolidinyl]methyl]acetamide] | 55 to 59 °C | 8 µg/mL (≈ 22.8 µM) | 32 µg/mL (≈ 91.1 µM) | 8 µg/mL (≈ 22.8 µM)
21 | CC(=O)NC[C@H]1CN(c2ccc(OC3CN(C(=O)CO)C3)c(F)c2)C(=O)O1 [Compound 61, (S)-N-[[3-[3-Fluoro-4-{N-(α-hydroxyacetyl)azetidinyl-3-oxy}phenyl]-2-oxo-5-oxazolidinyl]methyl]acetamide] | 158 to 160 °C | 128 µg/mL (≈ 336 µM) | 64 µg/mL (≈ 168 µM) | 32 µg/mL (≈ 83.9 µM)
22 | CC(=O)NC[C@H]1CN(c2ccc(OC3CCCN(c4ncccn4)C3)c(F)c2)C(=O)O1 (stereo partly drawn) [Compound 38, (S)-N-[[3-[3-Fluoro-4-{N-(2-pyrimidinyl)piperidinyl-3-oxy}phenyl]-2-oxo-5-oxazolidinyl]methyl]acetamide] | 130 to 131 °C | 32 µg/mL (≈ 74.5 µM) | 8 µg/mL (≈ 18.6 µM) | 16 µg/mL (≈ 37.3 µM)
23 | CC(=O)NC[C@H]1CN(c2ccc(OC3CCN(C(=O)OC(C)(C)C)CC3)nc2)C(=O)O1 [Compound 41, (5S)-3-[6-{N-(t-Butoxycarbonyl)piperidinyl-4-oxy}-pyridin-3-yl]-5-methylacetamide-oxazolidin-2-one] | 99 to 101 °C | > 128 µg/mL | 64 µg/mL (≈ 147 µM) | 128 µg/mL (≈ 295 µM)
